Test results as given in patent publication US6358885B1, “Substituted phenylheterocyclic herbicides” (Mississippi State University, priority 1992, dated 2002).

Tests used:
Test in all cases: Test B preemergence/postemergence greenhouse plant response rating 0 to 10
sugar beet = format: in vivo, Beta vulgaris; conditions: 0 to 10 scale
Summary of the method: (§1)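 Test chemicals were sprayed onto freshly planted seed and, concurrently, onto young plants between the one and four leaf stage. After a twelve- to sixteen-day greenhouse period, each species was visually compared with untreated controls.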

corn = format: in vivo, Zea mays; conditions: for Plant response rating, Corn: 0 to 10 scale
Summary of the method: as §1

rice = format: in vivo, Oryza sativa; conditions: 0 to 10 scale
Summary of the method: as §1

wild oat = format: in vivo, Avena fatua; conditions: 0 to 10 scale
Summary of the method: as §1

blackgrass = format: in vivo, Alopecurus myosuroides; conditions: for Plant response rating, Blackgrass: 0 to 10 scale
Summary of the method: as §1

cotton = format: in vivo, Gossypium hirsutum; conditions: for Plant response rating, Cotton: 0 to 10 scale
Summary of the method: as §1

purple nutsedge = format: in vivo, Cyperus rotundus; conditions: 0 to 10 scale
Summary of the method: as §1

crabgrass = format: in vivo, Digitaria spp.; conditions: for Plant response rating, Crabgrass: 0 to 10 scale
Summary of the method: as §1

wheat = format: in vivo, Triticum aestivum; conditions: 0 to 10 scale
Summary of the method: as §1

sorghum = format: in vivo, Sorghum bicolor; conditions: 0 to 10 scale
Summary of the method: as §1

Compound: Clc1ccc(-c2nc3n(c2Cl)CCC=C3)c(Cl)c1 [Compound 1]
- Plant response rating, Sugar beet (sugar beet; POSTEMERGENCE, Rate 50 g/ha): 8
- Plant response rating, Sugar beet (sugar beet; POSTEMERGENCE, Rate 200 g/ha): 10
- Plant response rating, Sugar beet (sugar beet; PREEMERGENCE, Rate 50 g/ha): 0
- Plant response rating, Sugar beet (sugar beet; Rate 200 g/ha, PREEMERGENCE): 0
- Plant response rating (0 to 10 scale), Corn (corn; POSTEMERGENCE, Rate 50 g/ha): 2
- Plant response rating, Corn (corn; POSTEMERGENCE, Rate 200 g/ha): 2
- Plant response rating, Corn (corn; PREEMERGENCE, Rate 50 g/ha): 0
- Plant response rating, Corn (corn; Rate 200 g/ha, PREEMERGENCE): 0
- Plant response rating, Rice (rice; POSTEMERGENCE, Rate 50 g/ha): 4
- Plant response rating, Rice (rice; POSTEMERGENCE, Rate 200 g/ha): 3
- Plant response rating, Rice (rice; PREEMERGENCE, Rate 50 g/ha): 0
- Plant response rating, Rice (rice; Rate 200 g/ha, PREEMERGENCE): 0
- Plant response rating, Wild oat (wild oat; POSTEMERGENCE, Rate 50 g/ha): 2
- Plant response rating, Wild oat (wild oat; POSTEMERGENCE, Rate 200 g/ha): 2
- Plant response rating, Wild oat (wild oat; Rate 200 g/ha, PREEMERGENCE): 0
- Plant response rating (0 to 10 scale), Blackgrass (blackgrass; POSTEMERGENCE, Rate 50 g/ha): 0
- Plant response rating, Blackgrass (blackgrass; POSTEMERGENCE, Rate 200 g/ha): 1
- Plant response rating, Blackgrass (blackgrass; PREEMERGENCE, Rate 50 g/ha): 0
- Plant response rating, Blackgrass (blackgrass; Rate 200 g/ha, PREEMERGENCE): 0
- Plant response rating (0 to 10 scale), Cotton (cotton; POSTEMERGENCE, Rate 50 g/ha): 7
- Plant response rating, Cotton (cotton; POSTEMERGENCE, Rate 200 g/ha): 8
- Plant response rating, Cotton (cotton; PREEMERGENCE, Rate 50 g/ha): 0
- Plant response rating, Cotton (cotton; Rate 200 g/ha, PREEMERGENCE): 0
- Plant response rating, Nutsedge (purple nutsedge; POSTEMERGENCE, Rate 50 g/ha): 0
- Plant response rating, Nutsedge (purple nutsedge; POSTEMERGENCE, Rate 200 g/ha): 0
- Plant response rating, Nutsedge (purple nutsedge; Rate 200 g/ha, PREEMERGENCE): 0
- Plant response rating (0 to 10 scale), Crabgrass (crabgrass; POSTEMERGENCE, Rate 50 g/ha): 2
- Plant response rating, Crabgrass (crabgrass; POSTEMERGENCE, Rate 200 g/ha): 3
- Plant response rating, Crabgrass (crabgrass; PREEMERGENCE, Rate 50 g/ha): 0
- Plant response rating, Crabgrass (crabgrass; Rate 200 g/ha, PREEMERGENCE): 0
- Plant response rating, Wheat (wheat; POSTEMERGENCE, Rate 50 g/ha): 1
- Plant response rating, Wheat (wheat; POSTEMERGENCE, Rate 200 g/ha): 2
- Plant response rating, Wheat (wheat; PREEMERGENCE, Rate 50 g/ha): 0
- Plant response rating, Wheat (wheat; Rate 200 g/ha, PREEMERGENCE): 0
- Plant response rating, Sorghum (sorghum; POSTEMERGENCE, Rate 50 g/ha): 4
- Plant response rating, Sorghum (sorghum; POSTEMERGENCE, Rate 200 g/ha): 4
- Plant response rating, Sorghum (sorghum; PREEMERGENCE, Rate 50 g/ha): 0
- Plant response rating, Sorghum (sorghum; Rate 200 g/ha, PREEMERGENCE): 0

Compound: Fc1cc(Cl)c(OC2CCCC2)cc1-c1nn2c(c1Cl)CCCC2 [Compound 24]
- Plant response rating, Sugar beet (sugar beet; POSTEMERGENCE, Rate 50 g/ha): 10
- Plant response rating, Sugar beet (sugar beet; POSTEMERGENCE, Rate 200 g/ha): 10
- Plant response rating, Sugar beet (sugar beet; PREEMERGENCE, Rate 50 g/ha): 9
- Plant response rating, Sugar beet (sugar beet; Rate 200 g/ha, PREEMERGENCE): 9
- Plant response rating (0 to 10 scale), Corn (corn; POSTEMERGENCE, Rate 50 g/ha): 5
- Plant response rating, Corn (corn; POSTEMERGENCE, Rate 200 g/ha): 5
- Plant response rating, Corn (corn; PREEMERGENCE, Rate 50 g/ha): 0
- Plant response rating, Corn (corn; Rate 200 g/ha, PREEMERGENCE): 1
- Plant response rating, Rice (rice; POSTEMERGENCE, Rate 50 g/ha): 5
- Plant response rating, Rice (rice; POSTEMERGENCE, Rate 200 g/ha): 5
- Plant response rating, Rice (rice; PREEMERGENCE, Rate 50 g/ha): 0
- Plant response rating, Rice (rice; Rate 200 g/ha, PREEMERGENCE): 0
- Plant response rating, Wild oat (wild oat; POSTEMERGENCE, Rate 50 g/ha): 3
- Plant response rating, Wild oat (wild oat; POSTEMERGENCE, Rate 200 g/ha): 4
- Plant response rating, Wild oat (wild oat; Rate 200 g/ha, PREEMERGENCE): 2
- Plant response rating (0 to 10 scale), Blackgrass (blackgrass; POSTEMERGENCE, Rate 50 g/ha): 2
- Plant response rating, Blackgrass (blackgrass; POSTEMERGENCE, Rate 200 g/ha): 6
- Plant response rating, Blackgrass (blackgrass; PREEMERGENCE, Rate 50 g/ha): 2
- Plant response rating, Blackgrass (blackgrass; Rate 200 g/ha, PREEMERGENCE): 8
- Plant response rating (0 to 10 scale), Cotton (cotton; POSTEMERGENCE, Rate 50 g/ha): 10
- Plant response rating, Cotton (cotton; POSTEMERGENCE, Rate 200 g/ha): 10
- Plant response rating, Cotton (cotton; PREEMERGENCE, Rate 50 g/ha): 3
- Plant response rating, Cotton (cotton; Rate 200 g/ha, PREEMERGENCE): 8
- Plant response rating, Nutsedge (purple nutsedge; POSTEMERGENCE, Rate 50 g/ha): 3
- Plant response rating, Nutsedge (purple nutsedge; POSTEMERGENCE, Rate 200 g/ha): 4
- Plant response rating, Nutsedge (purple nutsedge; PREEMERGENCE, Rate 50 g/ha): 0
- Plant response rating, Nutsedge (purple nutsedge; Rate 200 g/ha, PREEMERGENCE): 0
- Plant response rating (0 to 10 scale), Crabgrass (crabgrass; POSTEMERGENCE, Rate 50 g/ha): 5
- Plant response rating, Crabgrass (crabgrass; POSTEMERGENCE, Rate 200 g/ha): 5
- Plant response rating, Crabgrass (crabgrass; PREEMERGENCE, Rate 50 g/ha): 0
- Plant response rating, Crabgrass (crabgrass; Rate 200 g/ha, PREEMERGENCE): 7
- Plant response rating, Wheat (wheat; POSTEMERGENCE, Rate 50 g/ha): 3
- Plant response rating, Wheat (wheat; POSTEMERGENCE, Rate 200 g/ha): 4
- Plant response rating, Wheat (wheat; PREEMERGENCE, Rate 50 g/ha): 0
- Plant response rating, Wheat (wheat; Rate 200 g/ha, PREEMERGENCE): 1
- Plant response rating, Sorghum (sorghum; POSTEMERGENCE, Rate 50 g/ha): 5
- Plant response rating, Sorghum (sorghum; POSTEMERGENCE, Rate 200 g/ha): 6
- Plant response rating, Sorghum (sorghum; PREEMERGENCE, Rate 50 g/ha): 0
- Plant response rating, Sorghum (sorghum; Rate 200 g/ha, PREEMERGENCE): 1

Compound: CC(C)Oc1cc(-c2nn3c(c2Cl)CCCC3)c(F)cc1Cl [Compound 21]
- Plant response rating, Sugar beet (sugar beet; POSTEMERGENCE, Rate 50 g/ha): 10
- Plant response rating, Sugar beet (sugar beet; POSTEMERGENCE, Rate 200 g/ha): 10
- Plant response rating, Sugar beet (sugar beet; PREEMERGENCE, Rate 50 g/ha): 10
- Plant response rating, Sugar beet (sugar beet; Rate 200 g/ha, PREEMERGENCE): 9
- Plant response rating (0 to 10 scale), Corn (corn; POSTEMERGENCE, Rate 50 g/ha): 5
- Plant response rating, Corn (corn; POSTEMERGENCE, Rate 200 g/ha): 6
- Plant response rating, Corn (corn; PREEMERGENCE, Rate 50 g/ha): 0
- Plant response rating, Corn (corn; Rate 200 g/ha, PREEMERGENCE): 1
- Plant response rating, Rice (rice; POSTEMERGENCE, Rate 50 g/ha): 5
- Plant response rating, Rice (rice; POSTEMERGENCE, Rate 200 g/ha): 6
- Plant response rating, Rice (rice; PREEMERGENCE, Rate 50 g/ha): 0
- Plant response rating, Rice (rice; Rate 200 g/ha, PREEMERGENCE): 2
- Plant response rating, Wild oat (wild oat; POSTEMERGENCE, Rate 50 g/ha): 4
- Plant response rating, Wild oat (wild oat; POSTEMERGENCE, Rate 200 g/ha): 6
- Plant response rating, Wild oat (wild oat; Rate 200 g/ha, PREEMERGENCE): 6
- Plant response rating (0 to 10 scale), Blackgrass (blackgrass; POSTEMERGENCE, Rate 50 g/ha): 3
- Plant response rating, Blackgrass (blackgrass; POSTEMERGENCE, Rate 200 g/ha): 5
- Plant response rating, Blackgrass (blackgrass; PREEMERGENCE, Rate 50 g/ha): 6
- Plant response rating, Blackgrass (blackgrass; Rate 200 g/ha, PREEMERGENCE): 7
- Plant response rating (0 to 10 scale), Cotton (cotton; POSTEMERGENCE, Rate 50 g/ha): 10
- Plant response rating, Cotton (cotton; POSTEMERGENCE, Rate 200 g/ha): 10
- Plant response rating, Cotton (cotton; PREEMERGENCE, Rate 50 g/ha): 2
- Plant response rating, Cotton (cotton; Rate 200 g/ha, PREEMERGENCE): 7
- Plant response rating, Nutsedge (purple nutsedge; POSTEMERGENCE, Rate 50 g/ha): 1
- Plant response rating, Nutsedge (purple nutsedge; POSTEMERGENCE, Rate 200 g/ha): 3
- Plant response rating, Nutsedge (purple nutsedge; PREEMERGENCE, Rate 50 g/ha): 0
- Plant response rating, Nutsedge (purple nutsedge; Rate 200 g/ha, PREEMERGENCE): 0
- Plant response rating (0 to 10 scale), Crabgrass (crabgrass; POSTEMERGENCE, Rate 50 g/ha): 2
- Plant response rating, Crabgrass (crabgrass; POSTEMERGENCE, Rate 200 g/ha): 6
- Plant response rating, Crabgrass (crabgrass; PREEMERGENCE, Rate 50 g/ha): 2
- Plant response rating, Crabgrass (crabgrass; Rate 200 g/ha, PREEMERGENCE): 8
- Plant response rating, Wheat (wheat; POSTEMERGENCE, Rate 50 g/ha): 3
- Plant response rating, Wheat (wheat; POSTEMERGENCE, Rate 200 g/ha): 8
- Plant response rating, Wheat (wheat; PREEMERGENCE, Rate 50 g/ha): 3
- Plant response rating, Wheat (wheat; Rate 200 g/ha, PREEMERGENCE): 2
- Plant response rating, Sorghum (sorghum; POSTEMERGENCE, Rate 50 g/ha): 5
- Plant response rating, Sorghum (sorghum; POSTEMERGENCE, Rate 200 g/ha): 6
- Plant response rating, Sorghum (sorghum; PREEMERGENCE, Rate 50 g/ha): 0
- Plant response rating, Sorghum (sorghum; Rate 200 g/ha, PREEMERGENCE): 2
